EPA's ToxRefDB 2

Assays:
dog [1] = conditions: Chronic toxicity; beagle; Oral; Capsule; dose end: 52 week; group: systemic; systemic / clinical chemistry / alanine aminotransferase (alt/sgpt) / alanine aminotransferase (alt/sgpt) + systemic / in life observation…
mouse [2] = conditions: Subchronic oral toxicity in rodents, b6c3f1, Dermal, Topical, dose end: 14 week, group: systemic
rat [3] = conditions: Sub-acute dermal toxicity, fischer, Topical, dose end: 2 week, group: systemic, systemic / pathology microscopic / skin / hyperkeratosis + systemic / pathology microscopic / skin / hyperplasia + systemic / pathology …
mouse [4] = conditions: Sub-acute dermal toxicity, b6c3f1, Topical, dose end: 2 week, group: systemic, systemic / pathology gross / skin / [other] + systemic / pathology gross / skin / thickened + systemic / pathology gross / skin / ulcer + …
rat [5] = conditions: Carcinogenicity, fischer, Dermal, Topical, dose end: 105 week, group: systemic
rat [6] = conditions: Sub-acute dermal toxicity, wistar, Topical, dose end: 21 day, group: systemic, systemic / in life observation / clinical signs / erythema + systemic / in life observation / clinical signs / skin ulceration + systemic / …
dog [7] = conditions: Other (NonGuideline or Guideline Not Listed); beagle; Oral; Feed; dose end: 13 week; group: cannot be grouped; systemic / clinical chemistry / thyroxine (t4) / thyroxine (t4), total + systemic / clinical chemistry / triiodothyronine (t3) / …
rat [8] = conditions: Subchronic dermal toxicity, fischer, Topical, dose end: 14 week, group: systemic
dog [9] = conditions: Subchronic oral toxicity in nonrodent, beagle, Feed, dose end: 90 day, group: systemic, systemic / organ weight / ovary / relative to body weight + systemic / organ weight / thyroid gland / relative to body weight
rat [10] = conditions: Prenatal developmental toxicity study, sprague dawley, Oral, Gavage/Intubation, dose end: 15 GD
mouse [11] = conditions: Carcinogenicity; b6c3f1; Dermal; Topical; dose end: 105 week; group: systemic; systemic / pathology microscopic / skin / hyperplasia + systemic / pathology microscopic / skin / inflammation
dog [12] = conditions: Subchronic oral toxicity in nonrodent, beagle, Feed, dose end: 90 day, group: systemic
rat [13] = conditions: Other (NonGuideline or Guideline Not Listed), Oral, Feed, dose end: 111 PND, group: cannot be grouped
[14] = systemic / organ weight / lung / absolute + systemic / organ weight / lung / relative to body weight
[15] = systemic / organ weight / lung / absolute + systemic / organ weight / lung / relative to body weight + systemic / organ weight / liver / …
[16] = systemic / pathology gross / skin / [other] + systemic / pathology microscopic / skin / hyperkeratosis + systemic / pathology microscopic / …
[17] = systemic / pathology microscopic / skin / hyperkeratosis + systemic / pathology microscopic / skin / inflammation + systemic / pathology …
[18] = systemic / pathology microscopic / skin / hyperkeratosis
[19] = systemic / pathology microscopic / skin / hyperkeratosis + systemic / pathology microscopic / skin / hyperplasia + systemic / pathology …
[20] = group: developmental, developmental / developmental malformation / [other] / [other]
[21] = group: maternal, systemic / in life observation / body weight / body weight gain + reproductive / reproductive performance / resorptions / resorptions
[22] = systemic / pathology microscopic / kidney / pigmentation + systemic / pathology microscopic / spleen / hematopoietic cell proliferation
[23] = systemic / in life observation / body weight / body weight gain + systemic / in life observation / food consumption / food consumption
[24] = systemic / in life observation / body weight / body weight gain + systemic / in life observation / food consumption / food consumption + …

## CNC(=O)N(C)c1nnc(C(C)(C)C)s1 [Tebuthiuron]
Dog [1]
  LEL: 50 mg/kg/day
  LOAEL: 50 mg/kg/day
  NEL: 25 mg/kg/day
  NOAEL: 25 mg/kg/day

## N#CCCC(Br)(C#N)CBr (stereo unspecified) [1,2-Dibromo-2,4-dicyanobutane]
Mouse [2]; [14]
  LEL: 0.2 mg/kg/day
  NEL: < 0.2 mg/kg/day
Mouse [2]; [15]
  LOAEL: > 18 mg/kg/day
  NOAEL: ≥ 18 mg/kg/day
Rat [3]
  LEL: 37.5 mg/kg/day
  LOAEL: 37.5 mg/kg/day
  NEL: < 37.5 mg/kg/day
  NOAEL: < 37.5 mg/kg/day
Mouse [4]
  LEL: 75 mg/kg/day
  LOAEL: 75 mg/kg/day
  NEL: < 75 mg/kg/day
  NOAEL: < 75 mg/kg/day
Rat [5]; [16]
  LOAEL: 6 mg/kg/day
  NOAEL: 2 mg/kg/day
Rat [5]; [17]
  LEL: 2 mg/kg/day
  NEL: < 2 mg/kg/day
Rat [6]
  LEL: 1000 mg/kg/day
  LOAEL: 1000 mg/kg/day
  NEL: < 1000 mg/kg/day
  NOAEL: < 1000 mg/kg/day
Dog [7]
  LEL: 4.17 mg/kg/day
  LOAEL: 4.17 mg/kg/day
  NEL: < 4.17 mg/kg/day
  NOAEL: < 4.17 mg/kg/day
Rat [8]; [18]
  LEL: 0.2 mg/kg/day
  NEL: < 0.2 mg/kg/day
Rat [8]; [19]
  LOAEL: 2 mg/kg/day
  NOAEL: 0.6 mg/kg/day
Dog [9]
  LEL: 4.17 mg/kg/day
  LOAEL: 4.17 mg/kg/day
  NEL: < 4.17 mg/kg/day
  NOAEL: < 4.17 mg/kg/day
Rat [10]; [20]
  LEL: 100 mg/kg/day
  LOAEL: 100 mg/kg/day
  NEL: 25 mg/kg/day
  NOAEL: 25 mg/kg/day
Rat [10]; [21]
  LEL: 100 mg/kg/day
  LOAEL: 100 mg/kg/day
  NEL: 25 mg/kg/day
  NOAEL: 25 mg/kg/day
Mouse [11]
  LEL: 0.6 mg/kg/day
  LOAEL: 0.6 mg/kg/day
  NEL: < 0.6 mg/kg/day
  NOAEL: < 0.6 mg/kg/day
Dog [12]; systemic / in life observation / clinical signs / defecation (diarrhea) + systemic / in life observation / clinical signs / emesis
  LOAEL: 3.11 mg/kg/day
Dog [12]; systemic / in life observation / clinical signs / defecation (diarrhea) + systemic / in life observation / clinical signs / emesis + …
  NOAEL: 0.331 mg/kg/day
Dog [12]; [22]
  LEL: 0.288 mg/kg/day
  NEL: < 0.288 mg/kg/day
Rat [13]; [23]
  NEL: 4.17 mg/kg/day
  NOAEL: 4.17 mg/kg/day
Rat [13]; [24]
  LEL: 25 mg/kg/day
  LOAEL: 25 mg/kg/day
